Data as given in patent publication US7795294B2, “Tetrahydro-2H-indazole pyrazole cannabinoid modulators” (Janssen Pharmaceutica N.V., priority 2006, dated 2010).
pIC50: −log10 of the molar value.

Legend:
human CB2 receptor = molecular target: T1, human CB2 receptor (Homo sapiens, UniProt P34972); test: Binding assay for CB2 agonists or inverse agonists, [3H]-CP-55,940 displacement on membranes of transfected SK-N-MC cells; settings: for inhibition at 0.2 µM: read-out: Cannabinoid CB2 Receptor Binding percent inhibition
T1 construct: expressed in transfected cells; host or cells: SK-N-MC cells, stably transfected with pcDNA3 CB-2 (human); semi-purified membrane pellet
T1 sequence (P34972 whole entry): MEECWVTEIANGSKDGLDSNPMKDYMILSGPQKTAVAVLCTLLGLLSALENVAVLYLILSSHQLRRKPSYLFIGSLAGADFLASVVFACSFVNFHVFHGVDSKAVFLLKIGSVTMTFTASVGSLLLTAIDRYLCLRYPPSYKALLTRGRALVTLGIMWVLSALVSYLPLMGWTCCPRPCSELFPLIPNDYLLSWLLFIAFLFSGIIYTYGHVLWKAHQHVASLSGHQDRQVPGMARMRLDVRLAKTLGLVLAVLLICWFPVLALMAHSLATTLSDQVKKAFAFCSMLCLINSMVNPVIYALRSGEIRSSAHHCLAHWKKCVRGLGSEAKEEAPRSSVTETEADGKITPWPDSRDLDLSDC
Method: (§1) The human CB1 and CB2 receptors were stably expressed in SK-N-MC cells transfected with pcDNA3 CB-1 (human) or pcDNA3 CB-2 (human). The cells were grown in T-180 cell culture flasks under standard cell culture conditions at 37° C. in a 5% CO2 atmosphere. The cells were harvested by trysinization and homogenized in a homogenization buffer (10 mM Tris, 0.2 mM MgCl2, 5 mM KCl, with protease inhibitors aprotinin, leupeptin, pepstatin A and bacitracin) and centrifuged (2000 g). The supernatant was then centrifuged in 2M sucrose (31,300 g) to produce a semi-purified membrane pellet. The pellet was resuspended in homogenization and stored at −80° C.
(§2) On the day of the assay, the pellet was thawed on ice and diluted in assay buffer (50 mM Tris-HCl, 5 mM MgCl2, 2.5 mM EDTA, 0.5 mg/mL fatty acid free bovine serum albumin, pH 7.5). […] The plate was covered and incubated for 90 minutes at 30° C. The contents were then aspirated onto a Packard Unifilter GF/C filter bottom plate prewet with 0.5% polyethyleneimine. The wells of the polypropylene plate were rinsed and aspirated seven times with a 0.9% saline-0.5% Tween 20 solution. The Unifilter plate was dried, a scintillation cocktail was added to each well and the counts representing binding were quantitated in a TopCount scintillation counter.
(§3) For compounds tested, an IC50 binding value was obtained from percent inhibition studies in which various test concentrations were used. The binding value was calculated by linear regression. An average value is shown for those compounds where two or more IC50 values were obtained.
(§4) An average value is shown for those compounds where two or more percent inhibition values were obtained.

human CB1 receptor = molecular target: T2, human CB1 receptor (Homo sapiens, UniProt P21554); test: Binding assay for CB1 agonists or inverse agonists, [3H]-CP-55,940 displacement on membranes of transfected SK-N-MC cells; settings: for inhibition at 0.2 µM: read-out: Cannabinoid CB1 Receptor Binding percent inhibition
T2 construct: expressed in transfected cells; host or cells: SK-N-MC cells, stably transfected with pcDNA3 CB-1 (human); semi-purified membrane pellet
T2 sequence (P21554 whole entry): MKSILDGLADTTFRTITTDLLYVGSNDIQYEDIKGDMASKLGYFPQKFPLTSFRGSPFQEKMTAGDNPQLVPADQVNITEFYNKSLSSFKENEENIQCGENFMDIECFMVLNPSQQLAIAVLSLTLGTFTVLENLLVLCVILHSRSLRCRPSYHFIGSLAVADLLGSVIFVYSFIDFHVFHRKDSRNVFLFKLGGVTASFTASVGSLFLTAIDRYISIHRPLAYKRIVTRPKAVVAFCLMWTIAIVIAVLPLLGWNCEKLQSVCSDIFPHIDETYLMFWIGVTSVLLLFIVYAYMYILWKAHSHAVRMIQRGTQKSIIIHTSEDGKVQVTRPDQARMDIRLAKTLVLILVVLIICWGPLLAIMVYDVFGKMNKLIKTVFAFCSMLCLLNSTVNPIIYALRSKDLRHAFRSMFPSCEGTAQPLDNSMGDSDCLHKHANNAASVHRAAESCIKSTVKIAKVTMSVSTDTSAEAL
Method: as §1, §2, §3, §4

Structure (SMILES) | inhibition at 0.2 µM (human CB2 receptor) [%] | inhibition at 0.2 µM (human CB1 receptor) [%] | pIC50 (human CB2 receptor) | pIC50 (human CB1 receptor)
COc1ccc(-c2c3c(nn2-c2ccc(Cl)cc2Cl)C(C(=O)NN2CC4CCCC4C2)CCC3)cc1 (centres unmarked) [Cpd 28, 2-(2,4-dichloro-phenyl)-3-(4-methoxy-phenyl)-4,5,6,7-tetrahydro-2H-indazole-7-carboxylic acid (hexahydro-cyclopenta[c]pyrrol-2-yl)-amide] | 23 | 59 |  | 
O=C(N[C@H](CO)c1ccccc1)[C@@H]1CCCc2c1nn(-c1ccc(Cl)cc1Cl)c2-c1ccc(Br)s1 [Cpd 57, (7R)-3-(5-bromo-thiophen-2-yl)-2-(2,4-dichloro-phenyl)-4,5,6,7-tetrahydro-2H-indazole-7-carboxylic acid [(1S)-2-hydroxy-1-phenyl-ethyl]-amide] |  |  | 6.52 | 6.52
COc1ccc(-c2c3c(nn2-c2ccc(Cl)cc2Cl)[C@@H](C(=O)N[C@H](C)c2ccccc2)CCC3)cc1 [Cpd 25, (7S)-2-(2,4-dichloro-phenyl)-3-(4-methoxy-phenyl)-4,5,6,7-tetrahydro-2H-indazole-7-carboxylic acid [(1R)-1-phenyl-ethyl]-amide] | 35 |  |  | 8.40
CC(NC(=O)C1CCCc2c1nn(Cc1ccccc1)c2-c1cccc(F)c1)C1CCCCC1 (centres unmarked) [Cpd 9, 2-benzyl-3-(3-fluoro-phenyl)-4,5,6,7-tetrahydro-2H-indazole-7-carboxylic acid (1-cyclohexyl-ethyl)-amide] |  |  | 5.67 | 5.46
Cc1ccc(-c2c3c(nn2Cc2ccccc2)C(C(=O)NC2C4(C)CCC(C4)C2(C)C)CCC3)cc1 (centres unmarked) [Cpd 6, 2-benzyl-3-p-tolyl-4,5,6,7-tetrahydro-2H-indazole-7-carboxylic acid (1,3,3-trimethyl-bicyclo[2.2.1]hept-2-yl)-amide] |  |  | 6.08 | 6.40
C[C@@H](NC(=O)C1CCCc2c1nn(-c1ccc(Cl)cc1Cl)c2-c1ccc(Cl)s1)C1CCCCC1 (stereo partly drawn) [Cpd 47, 3-(5-chloro-thiophen-2-yl)-2-(2,4-dichloro-phenyl)-4,5,6,7-tetrahydro-2H-indazole-7-carboxylic acid [(1R)-1-cyclohexyl-ethyl]-amide] | 5 |  |  | 8.40
C[C@@H](NC(=O)[C@H]1CCCc2c1nn(-c1ccc(Cl)cc1Cl)c2-c1ccc(Cl)s1)c1ccccc1 [Cpd 48, (7S)-3-(5-chloro-thiophen-2-yl)-2-(2,4-dichloro-phenyl)-4,5,6,7-tetrahydro-2H-indazole-7-carboxylic acid [(1R)-1-phenyl-ethyl]-amide] | 0 | 38 |  | 
COc1ccc(-c2c3c(nn2-c2ccc(Cl)cc2Cl)C(C(=O)NN2CCCCC2)CCC3)cc1 (centres unmarked) [Cpd 21, 2-(2,4-dichloro-phenyl)-3-(4-methoxy-phenyl)-4,5,6,7-tetrahydro-2H-indazole-7-carboxylic acid piperidin-1-ylamide] | 18 | 42 |  | 
C[C@@H](NC(=O)[C@@H]1CCCc2c1nn(-c1ccc(Cl)cc1Cl)c2-c1ccc(Br)cc1)c1ccccc1 [Cpd 46, (7R)-3-(4-bromo-phenyl)-2-(2,4-dichloro-phenyl)-4,5,6,7-tetrahydro-2H-indazole-7-carboxylic acid [(1R)-1-phenyl-ethyl]-amide] | 28 |  |  | 9.10
Cc1ccc(-c2c3c(nn2Cc2ccccc2)C(C(=O)NC(C)C24CC5CC(CC(C5)C2)C4)CCC3)cc1 (centres unmarked) [Cpd 7, 2-benzyl-3-p-tolyl-4,5,6,7-tetrahydro-2H-indazole-7-carboxylic acid (1-adamantan-1-yl-ethyl)-amide] |  |  | 6.10 | 6.43
C[C@@H](NC(=O)C1CCCc2c1nn(-c1ccc(Cl)cc1Cl)c2-c1ccc(F)cc1)C1CCCCC1 (stereo partly drawn) [Cpd 36, 2-(2,4-dichloro-phenyl)-3-(4-fluoro-phenyl)-4,5,6,7-tetrahydro-2H-indazole-7-carboxylic acid [(1R)-1-cyclohexyl-ethyl]-amide] | 0 |  |  | 8.70
O=C(NN1CCCCC1)C1CCCc2c1nn(-c1ccc(Cl)cc1Cl)c2-c1ccc(Cl)cc1 (centres unmarked) [Cpd 33, 3-(4-chloro-phenyl)-2-(2,4-dichloro-phenyl)-4,5,6,7-tetrahydro-2H-indazole-7-carboxylic acid piperidin-1-ylamide] | 0 |  |  | 7.41
CC12CCC(C1)C(C)(C)C2NC(=O)C1CCCc2c1nn(Cc1ccccc1)c2-c1ccc(Cl)cc1 (centres unmarked) [Cpd 4, 2-benzyl-3-(4-chloro-phenyl)-4,5,6,7-tetrahydro-2H-indazole-7-carboxylic acid (1,3,3-trimethyl-bicyclo[2.2.1]hept-2-yl)-amide] |  |  | 5.41 | 5.26
COc1ccc(-n2nc3c(c2-c2ccc(C)cc2)CCCC3C(=O)N[C@@H]2C3CCC(C3)[C@@H]2CO)cc1 (stereo partly drawn) [Cpd 17, 2-(4-methoxy-phenyl)-3-p-tolyl-4,5,6,7-tetrahydro-2H-indazole-7-carboxylic acid [(2R,3S)-3-hydroxymethyl-bicyclo[2.2.1]hept-2-yl]-amide] |  |  | 5.80 | 5.74
C[C@@H](NC(=O)[C@@H]1CCCc2c1nn(-c1ccc(Cl)cc1Cl)c2-c1ccc(Br)s1)C1CCCCC1 [Cpd 55, (7R)-3-(5-bromo-thiophen-2-yl)-2-(2,4-dichloro-phenyl)-4,5,6,7-tetrahydro-2H-indazole-7-carboxylic acid [(1R)-1-cyclohexyl-ethyl]-amide] | 27 |  |  | 8.52
COC[C@H]1CCCN1NC(=O)C1CCCc2c1nn(-c1ccc(Cl)cc1Cl)c2-c1ccc(OC)cc1 (stereo partly drawn) [Cpd 32, 2-(2,4-dichloro-phenyl)-3-(4-methoxy-phenyl)-4,5,6,7-tetrahydro-2H-indazole-7-carboxylic acid [(2R)-2-methoxymethyl-pyrrolidin-1-yl]-amide] | 6 | 46 |  | 
C[C@@H](NC(=O)[C@@H]1CCCc2c1nn(-c1ccc(Cl)cc1Cl)c2-c1ccc(F)cc1)c1ccccc1 [Cpd 38, (7R)-2-(2,4-dichloro-phenyl)-3-(4-fluoro-phenyl)-4,5,6,7-tetrahydro-2H-indazole-7-carboxylic acid [(1R)-1-phenyl-ethyl]-amide] | 14 |  |  | 8.70
COc1ccc(-c2c3c(nn2-c2ccc(Cl)cc2Cl)C(C(=O)NN(C)c2ccccc2)CCC3)cc1 (centres unmarked) [Cpd 26, 2-(2,4-dichloro-phenyl)-3-(4-methoxy-phenyl)-4,5,6,7-tetrahydro-2H-indazole-7-carboxylic acid N′-methyl-N′-phenyl-hydrazide] | 32 |  |  | 8.22
O=C(NN1CC2CCCC2C1)C1CCCc2c1nn(-c1ccc(Cl)cc1Cl)c2-c1ccc(Cl)cc1 (centres unmarked) [Cpd 50, 3-(4-chloro-phenyl)-2-(2,4-dichloro-phenyl)-4,5,6,7-tetrahydro-2H-indazole-7-carboxylic acid (hexahydro-cyclopenta[c]pyrrol-2-yl)-amide] | 3 | 39 |  | 
COc1ccc(-n2nc3c(c2-c2ccc(C)cc2)CCCC3C(=O)NC(C)C23CCC4CC(CC4C2)C3)cc1 (centres unmarked) [Cpd 2, 2-(4-methoxy-phenyl)-3-p-tolyl-4,5,6,7-tetrahydro-2H-indazole-7-carboxylic acid [1-(octahydro-2,5-methano-inden-5-yl)-ethyl]-amide] |  |  | 5.59 | 5.67
CC12CCC(C1)C(C)(C)[C@H]2NC(=O)C1CCCc2c1nn(Cc1ccccc1)c2-c1cccc(F)c1 (stereo partly drawn) [Cpd 19, 2-benzyl-3-(3-fluoro-phenyl)-4,5,6,7-tetrahydro-2H-indazole-7-carboxylic acid [(2S)-1,3,3-trimethyl-bicyclo[2.2.1]hept-2-yl]-amide] |  |  | 6.54 | 6.40
C[C@@H](NC(=O)[C@H]1CCCc2c1nn(-c1ccc(Cl)cc1Cl)c2-c1ccc(Br)cc1)c1ccccc1 [Cpd 45, (7S)-3-(4-bromo-phenyl)-2-(2,4-dichloro-phenyl)-4,5,6,7-tetrahydro-2H-indazole-7-carboxylic acid [(1R)-1-phenyl-ethyl]-amide] | 11 | 66 |  | 
